{"source": "patent US11542545B2", "about": "“Microfluidic measurements of the response of an organism to a drug” (priority 2014, dated 2023)", "key": {"[1]": {"test_system": "E. coli isolates from patients with urinary tract infections and susceptible to various antibiotics", "conditions": "1:1 BHI:urine, qPCR"}, "[2]": {"test_system": "ciprofloxacin-susceptible E. coli isolate from a patient with a urinary tract infection", "conditions": "0.75 ug/mL ciprofloxacin, 30 minutes, 1:1 BHI:urine, qPCR, 3 replicates"}, "[3]": {"test_system": "ciprofloxacin-susceptible E. coli isolate from a patient with a urinary tract infection", "conditions": "0.75 ug/mL ciprofloxacin, 30 minutes, sample diluted 1:10, digital PCR, Poisson statistics"}, "[4]": {"test_system": "susceptible UTI E. coli isolate", "conditions": "2.5 ug/mL ciprofloxacin, 15 minutes, BHI"}, "[5]": {"test_system": "resistant UTI E. coli", "conditions": "2.5 ug/mL ciprofloxacin, 15 minutes, BHI"}, "[6]": {"test_system": "E. coli isolates", "conditions": "RNA target; cited from earlier work"}, "[7]": {"test_system": "resistant E. coli isolate", "experiment": "23S rDNA copy number by digital PCR on a SlipChip after ciprofloxacin exposure, resistant isolate", "type": "cell-based", "conditions": "Example 4 resistant isolate, 2.5 ug/mL ciprofloxacin"}, "[8]": {"test_system": "E. coli", "conditions": "after treatment with trimethoprim, susceptible cells, vs baseline level of zero (Slager 2014); cited from earlier work"}}, "note": "Where two headings read alike, the source gives them in different places.", "data": [{"molecule": "CN(C)[C@@H]1C(O)=C(C(N)=O)C(=O)[C@@]2(O)C(O)=C3C(=O)c4c(O)cccc4[C@@](C)(O)[C@H]3C[C@@H]12", "note": "[tetracycline]", "values": [{"measurement": "fold change in rDNA copy number", "setting": "[1]; tetracycline treatment, 30 minutes", "value": 1.55, "unit": "fold"}]}, {"molecule": "O=C(O)c1cn(C2CC2)c2cc(N3CCNCC3)c(F)cc2c1=O", "note": "[ciprofloxacin]", "values": [{"measurement": "Cq of rDNA, treated sample", "setting": "[2]", "value": "22.84+/−0.53"}, {"measurement": "23S rDNA concentration, treated sample", "setting": "[3]", "value": "148,031+/−7,103 copies/mL"}, {"measurement": "23S CT Treated", "setting": "[4]", "value": "20.19/20.84"}, {"measurement": "FeoB CT Treated", "setting": "[4]", "value": "23.3/23.71"}, {"measurement": "dnaAinh CT Treated", "setting": "[4]", "value": "23.93/23.97"}, {"measurement": "recA CT Treated", "setting": "[4]", "value": "24.81/24.65"}, {"measurement": "23S CT Treated", "setting": "[5]", "value": "20.22/20.13"}, {"measurement": "FeoB CT Treated", "setting": "[5]", "value": "23.19/23.1"}, {"measurement": "dnaAinh CT Treated", "setting": "[5]", "value": "23.68/23.89"}, {"measurement": "recA CT Treated", "setting": "[5]", "value": "27.19/27.05"}, {"measurement": "Response to Ciprofloxacin: EcHS_A0999 dmsA anaerobic dimethyl sulfoxide reductase, A subunit", "setting": "[6]", "value": "Same or Downregulated"}, {"measurement": "Response to Ciprofloxacin: EcHS_A1247 pepT peptidase T", "setting": "[6]", "value": "Same or Downregulated"}, {"measurement": "Response to Ciprofloxacin: EcHS_A1333 narK nitrite extrusion protein 1", "setting": "[6]", "value": "Same or Downregulated"}, {"measurement": "Response to Ciprofloxacin: EcHS_A1334 narG nitrate reductase, alpha subunit", "setting": "[6]", "value": "Same or Downregulated"}, {"measurement": "Response to Ciprofloxacin: EcHS_A1335 narH nitrate reductase, beta subunit", "setting": "[6]", "value": "Same or Downregulated"}, {"measurement": "Response to Ciprofloxacin: EcHS_A1557 fdnG formate dehydrogenase, nitrate inducible, alpha subunit, selenocysteine-containing", "setting": "[6]", "value": "Same or Downregulated"}, {"measurement": "Response to Ciprofloxacin: EcHS_A1755 hypothetical protein", "setting": "[6]", "value": "Same or Downregulated"}, {"measurement": "Response to Ciprofloxacin: EcHS_A1940 DNA damage-inducible protein YebG", "setting": "[6]", "value": "Significantly Upregulated"}, {"measurement": "Response to Ciprofloxacin: EcHS_A1987 flhC transcriptional activator FlhC", "setting": "[6]", "value": "Same or Downregulated"}, {"measurement": "Response to Ciprofloxacin: EcHS_A1988 flhD transcriptional activator FlhD", "setting": "[6]", "value": "Same or Downregulated"}, {"measurement": "Response to Ciprofloxacin: EcHS_A2346 napF ferredoxin-type protein", "setting": "[6]", "value": "Same or Downregulated"}, {"measurement": "Response to Ciprofloxacin: EcHS_A2835 recA recombinase A", "setting": "[6]", "value": "Significantly Upregulated"}, {"measurement": "Response to Ciprofloxacin: EcHS_A4283 lexA LexA repressor", "setting": "[6]", "value": "Significantly Upregulated"}, {"measurement": "Response to Ciprofloxacin: EcHS_A4284 dinF DNA-damage-inducible SOS response protein", "setting": "[6]", "value": "Significantly Upregulated"}, {"measurement": "Response to Ciprofloxacin: EcHS_A4300 uvrA excinuclease ABC subunit A", "setting": "[6]", "value": "Significantly Upregulated"}, {"measurement": "change in rDNA copy number", "setting": "[7]", "value": "No significant change"}]}, {"molecule": "COc1cc(Cc2cnc(N)nc2N)cc(OC)c1OC", "note": "[trimethoprim]", "values": [{"measurement": "relative DNA copy number as compared to the distance from the origin of replication (oriC)", "setting": "[8]", "value": "peaks close to the origin of replication"}]}, {"molecule": "trimethoprim/sulfamethoxazole", "values": [{"measurement": "fold change in rDNA copy number", "setting": "[1]; trimethoprim/sulfamethoxazole treatment, 45 minutes", "value": 1.35, "unit": "fold"}]}, {"molecule": "O=C1CN(/N=C/c2ccc([N+](=O)[O-])o2)C(=O)N1", "note": "[nitrofurantoin]", "values": [{"measurement": "fold change in rDNA copy number", "setting": "[1]; nitrofurantoin treatment, 15 minutes", "value": 1.62, "unit": "fold"}]}]}
